How the values were obtained:
[1] = Solubility of drugs in aqueous solutions of low molecular weight chitosan C-5 (Example 3); settings: aqueous solution of C-5, varying concentration, 25° C., 10 days
Description: Each 5 mg of vitamin E and vitamin K was accurately weighed (this amount is chosen so as to exceed above the solubility limits of these drugs) and placed in a test tube. […] Each of the solutions which reached dissolution equilibrium was sampled with a pippette fitted with a cotton plug. The sample was filtered through a 0.45 μm membrane filter and the concentration of vitamin E or vitamin K was determined by means of UV-determination after extraction with chloroform.

[2] = Dissolution rate of drug into water, solid dispersion with low molecular weight chitosan C-5 versus drug alone (Example 4); type: physicochemical; settings: drug alone without additive; 10 to 30 mg in 60 ml, 57 rpm, water 37° C.
Description: Each 3 parts by weight of the chitosan products C-0 to C-5 was added to 1 part by weight of flurbiprofen (denoted sometimes hereinafter as FP) and the mixture kneaded with the addition of water in an amount of 2-fold of that of the chitosan product for 1 hour. The kneaded mixture was dried under a reduced pressure at room temperature for 48 hours. A fraction of the particles that passed through 100-mesh standard sieve was employed as the solid dispersion. For each of these solid dispersions, the dissolution rate of FP into water at 37° C. was observed by the procedure given below:
500 ml of water were charged in a dissolution rate measuring device (made by Toyama Sangyo Co., Ltd.) maintained at 37° C. and thereto was further added each of the above solid dispersions in an amount corresponding to 40 mg as FP and the mixture was agitated at 91 rpm. The agitated mixture was sampled each in an amount of 3 ml at a regular time interval with a pipette fitted with a cotton plug. Each sample was filtered through a 0.45 μm membrane filter and the FP concentration of the filtrate was determined after extraction with chloroform.
The rate of dissolution was determined for drug compositions having the low molecular weight chitosan C-5 obtained in Reference Example 1, by observing the concentration of the drug in the same manner as in Example 1 at a regular time interval except that the drug was charged in an amount within the range of from 10 to 30 mg in 60 ml of solution and the agitation was effected at 57 rpm. The ratio of the dissolved amount of drug to the total charged amount of the drug was calculated. Results are summarized in FIGS. 5(A)- 5(G) in a corresponding graph. The experimental results for flurbiprofen are given here again.
The average dissolution time calculated from the rate of dissolution for each drug is recited in Table 3. The calculation of the average dissolution time was made basing on the method given in "Chem. Pharm. Bull.", 30, 1088 (1982).

[3] = Wetting contact angle of water drops on tablet surface (Example 7); type: physicochemical; settings: tablet 2 cm diameter, 50 μl water drop
Description: Examination was effected for the samples of the solid dispersions as obtained in Example 5 and for each drug alone without any additive. The wetting was evaluated by determining the wetting contact angle of water drops on the surface of a tablet having a diameter of 2 cm obtained using an IR tabletting machine with a drop of water of 50 μl.

[4] = chitosan in a form of a solution of acetic acid salt, versus polyvinylpyrrolidone; cited from earlier work

SMILES | dissolution characteristic curve type [1] | Average Dissolution Time, Drug alone [2] | solubility of drug with increasing concentration of low molecular weight chitosan [1] | Wetting Contact Angle, Drug alone [3] | effect of chitosan on the dissolution rate of kitasamycin [4]
C[C@H]1C[C@H]2[C@@H]3CCC4=CC(=O)C=C[C@]4(C)[C@@]3(F)[C@@H](O)C[C@]2(C)[C@@]1(O)C(=O)CO [Betamethasone, betamethasone] | dissolution characteristic curve of Bs-type | 45.9 min |  |  | 
C[C@H]1O[C@@H](O[C@H]2[C@@H](O)C[C@H](O[C@H]3[C@@H](O)C[C@H](O[C@H]4CC[C@@]5(C)[C@H](CC[C@@H]6[C@@H]5C[C@@H](O)[C@]5(C)[C@@H](C7=CC(=O)OC7)CC[C@]65O)C4)O[C@@H]3C)O[C@@H]2C)C[C@H](O)[C@@H]1O [Digoxin, digoxin] |  | 40.9 min | an increase in the solubility of the drug was recognized |  | 
CC(C(=O)O)c1ccc(-c2ccccc2)c(F)c1 (centres unmarked) [Flurbiprofen, flurbiprofen] |  | 46.1 min |  | 55 ° | 
COc1ccc2c(c1)c(CC(=O)O)c(C)n2C(=O)c1ccc(Cl)cc1 [Indomethacin, indomethacin] |  | 24.8 min |  | 50 ° | 
O=C1NC(=O)C(c2ccccc2)(c2ccccc2)N1 [Phenytoin, phenytoin] |  | 35.9 min | an increase in the solubility of the drug was recognized |  | 
C[C@]12C=CC(=O)C=C1CC[C@@H]1[C@@H]2[C@@H](O)C[C@@]2(C)[C@H]1CC[C@]2(O)C(=O)CO [Prednisolone, prednisolone] |  | 18.7 min |  |  | 
C[C@]12C=CC(=O)C=C1CC[C@H]1[C@@H]3C[C@@H](O)[C@](O)(C(=O)CO)[C@@]3(C)C[C@H](O)[C@@]12F [Triamcinolone, triamcinolone] |  | 24.3 min |  | 50 ° | 
CO[C@@H]1[C@@H](O[C@@H]2O[C@H](C)[C@@H](O[C@H]3C[C@@](C)(O)[C@@H](OC(=O)CC(C)C)[C@H](C)O3)[C@H](N(C)C)[C@H]2O)[C@@H](CC=O)C[C@@H](C)[C@@H](O)/C=C/C=C/C[C@@H](C)OC(=O)C[C@H]1O [kitasamycin] |  |  |  |  | lower than that of polyvinylpyrrolidone

— patent US5474989A, “Drug composition” (priority 1988, dated 1995)
